Experimental data taken from patent US20100008965A1, “BIOCOMPATIBLE MEDICAL PRODUCTS HAVING ENHANCED ANTI-THROMBOGENIC PROPERTIES” (priority 2008, published 2010).

Assays:
[1] = test system: HCAEC; assay: HCAEC cell binding assay to immobilized fibronectin polypeptides (crystal violet); type: cell-based, human; settings: immobilized, 8 h
Method: (§1) Human coronary artery endothelial cell (HCAEC) and human umbilical vein endothelial cell (HUVEC) primary human cells were obtained (Cambrex Corporation, East Rutherford, N.J.) and maintained according to the manufacturer's instructions at 37° C. and 5% CO2. HCAEC were grown in microvascular endothelial cell medium (EBM-2 MV, Cambrex) supplemented with 5% fetal bovine serum, 0.1% human epidermal growth factor, 0.04% hydrocortisone, 0.1% vascular endothelial growth factor, 0.4% human fibroblast growth factor-B, 0.1% R^3-insulin-like growth factor-1, 0.1% ascorbic acid, and 0.1% gentamicin and amphotericin-B (GA-1000). HUVEC were grown in endothelial cell medium (EBM, Cambrex) supplemented with 2% fetal bovine serum, 0.4% bovine brain extract, 0.1% human epidermal growth factor, 0.1% hydrocortisone, and 0.1% gentamicin and amphotericin-B (GA-1000). HCAEC and HUVEC were subcultured at 90-95% confluence using 0.05% trypsin-EDTA (Invitrogen, Carlsbad, Calif.) and used for experiments between passages 3-7 (HUVEC) or 5-11 (HCAEC).
HCAEC or HUVEC cell binding assays to immobilized recombinant fibronectin polypeptides were performed in order to ascertain which polypeptide(s) maximally support(s) alpha-4 integrin-mediated cell adhesion. Connecting Segment-1 (SEQ ID NO:1), EILDV (SEQ ID NO:2), RGDS (SEQ ID NO:3) (positive control), RGES (SEQ ID NO:4) (negative control), and EILEVPST (SEQ ID NO:5) (negative control) and were immobilized by drying overnight at room temperature in Immobilizer™ Amino 96-well microplates (Nalge Nunc International, Rochester, N.Y.). RGES, EILDV, and EILEVPST were incubated at a molar equivalent concentration equal to 200 μg RGDS per well. CS-1 was incubated at 50 μg/well. On a molar basis per well, this equates to approximately twenty-fold less CS-1 relative to RGDS. […] Cells were manually counted, and their concentration adjusted to yield a total cell population of 5×10^4 cells/well. […] Spectrometric absorbance values were read at 562 nm at room temperature using a ThermoMax microplate reader (Molecular Devices Corporation, Sunnyvale, Calif.).

[2] = test system: HUVEC; assay: HUVEC cell binding assay to immobilized fibronectin polypeptides (crystal violet); type: cell-based, human; settings: 8 h
Method: as §1, with “HCAEC and HUVEC were subcultured at 90-95% confluence using 0.05% trypsin-EDTA (Invitrogen, Carlsbad, Calif.) and used for experiments between passages 3-7 (HUVEC) or 5-11 (HCAEC).” left out
HCAEC or HUVEC cell binding assays to immobilized recombinant fibronectin polypeptides were performed in order to ascertain which polypeptide(s) maximally support(s) alpha-4 integrin-mediated cell adhesion. […] Cells were manually counted, and their concentration adjusted to yield a total cell population of 5×10^4 cells/well. […] Spectrometric absorbance values were read at 562 nm at room temperature using a ThermoMax microplate reader (Molecular Devices Corporation, Sunnyvale, Calif.).

[3] = test system: HCAEC; assay: alpha-4 integrin function blocking cell binding assay, HCAEC; type: cell-based, human; settings: 0.5 μg antibody per 5×10^4 cells, 8 h; CS-1 p<0.05
Method: (§2) To verify that HCAEC or HUVEC adhesion to immobilized CS-1 polypeptides is specifically mediated via alpha-4-containing integrin heterodimers, alpha-4 integrin function blocking cell binding assays were performed. RGDS, EILEVPST, and CS-1 polypeptides were immobilized in Immobilizer™ Amino 96-well microplates. Microplate wells were prepared as described above. Trypsinized HCAEC or HUVEC suspensions were manually counted, aliquoted into two groups, and incubated for one hour on ice with one of the following antibodies at a concentration of 0.5 μg antibody per 5×10^4 cells: (a) mouse monoclonal IgG1 anti-human alpha-4-integrin (CD49d, clone P1H4) (Chemicon), or (b) mouse monoclonal IgG1 anti-human isotype-matched control (R&D Systems). Next, 5×10^4 cells suspended in their respective basal medium were added to wells containing immobilized peptide polypeptides and incubated for eight hours at 37° C. and a 5% CO2 atmosphere. Adherent cells were analyzed via crystal violet staining as described previously.
To differentiate whether HCAEC and HUVEC adhere to CS-1 peptides via an alpha-4 integrin-specific interaction, HCAEC and HUVEC adhesion assays to CS-1, RGDS, and EILEVPST peptides were performed following one hour endothelial cell incubations with either an alpha-4 integrin function blocking antibody or an IgG isotype-matched control antibody. The EILEVPST peptide served as the negative control cell adhesion peptide. The RGDS peptide served as an additional control. Endothelial cell adhesion to RGDS is primarily mediated by alpha-5-beta-1 integrins. Therefore, alpha-4 integrin function blocking should not have a significant effect on adhesion to RGDS. Thus, specificity of HCAEC and HUVEC binding to CS-1 via alpha-4 integrins could be tested.

[4] = test system: HUVEC; assay: alpha-4 integrin function blocking cell binding assay, HUVEC; type: cell-based, human; settings: 0.5 μg antibody per 5×10^4 cells, 8 h; CS-1 p=0.1
Method: as §2
To differentiate whether HCAEC and HUVEC adhere to CS-1 peptides via an alpha-4 integrin-specific interaction, HCAEC and HUVEC adhesion assays to CS-1, RGDS, and EILEVPST peptides were performed following one hour endothelial cell incubations with either an alpha-4 integrin function blocking antibody or an IgG isotype-matched control antibody. […]

[5] = target: human alpha-4 integrin (CD49d), alpha-4-containing integrin heterodimers on endothelial cells (human) (UniProt P13612); assay: flow cytometry, FITC-BU49 on fixed HCAEC, against isotype control
[6] = target: human alpha-4 integrin (CD49d), alpha-4-containing integrin heterodimers on endothelial cells (human) (UniProt P13612); assay: flow cytometry, FITC-BU49 on fixed HUVEC, against isotype control
[7] = target: human alpha-4 integrin (CD49d), alpha-4-containing integrin heterodimers on endothelial cells (human) (UniProt P13612); assay: flow cytometry, FITC-BU49 on fixed human foreskin fibroblasts, against isotype control
[8] = test system: human platelets; assay: 51Cr-labeled platelet adhesion to immobilized ECM proteins under shear flow; type: cell-based; settings: 16.5 dyne/cm^2, one hour; non-activated and thrombin-activated; versus CS-1 and glass control
Method: Characterization of human platelet adhesion to immobilized extracellular matrix proteins was performed by subjecting non-activated or thrombin-activated human platelets to a shear stress τ=16.5 dyne/cm^2 for one hour using a peristaltic pump-driven parallel plate fluid flow system. Washed human platelets were isolated as described above, resuspended in platelet washing buffer (PWB), and adjusted to a final concentration of approximately 0.5-1.0×10^9 platelets/ml. The platelet suspensions were incubated for thirty minutes at room temperature with 25 μCi/ml Na2^51CrO4 (GE Healthcare, Piscataway, N.J.). ^51Cr-labeled platelets were centrifuged at 2000×g for three minutes at room temperature and resuspended in 20 ml fresh frozen plasma previously thawed and warmed to 37° C. The ^51Cr-platelet/plasma solution was distributed equally (5 ml) into each of four reservoirs containing an additional 50 ml of 37° C. human plasma. For thrombin-activated platelets, 1 U thrombin (Sigma) per 3 ml platelet suspension was added immediately prior to aliquoting the ^51Cr-platelet/plasma solution into the flow loop reservoirs.
75×38×1 mm glass microscope slides were coated with ECM proteins as described above. Slides were incubated for one hour at room temperature with a 0.25% (w/v) sterile-filtered BSA solution. […]

[9] = test system: human platelets; assay: DiOC6-labeled platelet adhesion imaging under shear flow; type: cell-based; settings: 16.5 dyne/cm^2, one hour
Method: To visualize shear stress-mediated platelet adhesion to the immobilized ECM proteins, non-radiolabeled non-activated or thrombin-activated human platelets were prepared as described above, but were first incubated for ten minutes at room temperature with a 10 μM DiOC6 (dihexaoxacarbocyanine iodide) (Sigma) solution prior to being subjected to flow for one hour at a shear stress τ=16.5 dyne/cm^2. Post-flow, all slides were rinsed twice with PBS and fixed with 4% (w/v) paraformaldehyde. Platelet adhesion was visualized on a Nikon Diaphot 200 inverted epifluorescence microscope (Nikon) at 488 nm using a 40× objective. Images were captured using an Olympus DP70 digital camera (Olympus America, Inc.) and analyzed using the Adobe® Photoshop® software package version 6.0 (Adobe Systems Incorporated, San Jose, Calif.).

[10] = target: human alpha-4 integrin (CD49d), alpha-4-containing integrin heterodimers on endothelial cells (human, UniProt P13612 34-1032); assay: cell-based or functional assay
Sequence of human alpha-4 integrin (CD49d), alpha-4-containing integrin heterodimers on endothelial cells (P13612 34-1032, one chain of several): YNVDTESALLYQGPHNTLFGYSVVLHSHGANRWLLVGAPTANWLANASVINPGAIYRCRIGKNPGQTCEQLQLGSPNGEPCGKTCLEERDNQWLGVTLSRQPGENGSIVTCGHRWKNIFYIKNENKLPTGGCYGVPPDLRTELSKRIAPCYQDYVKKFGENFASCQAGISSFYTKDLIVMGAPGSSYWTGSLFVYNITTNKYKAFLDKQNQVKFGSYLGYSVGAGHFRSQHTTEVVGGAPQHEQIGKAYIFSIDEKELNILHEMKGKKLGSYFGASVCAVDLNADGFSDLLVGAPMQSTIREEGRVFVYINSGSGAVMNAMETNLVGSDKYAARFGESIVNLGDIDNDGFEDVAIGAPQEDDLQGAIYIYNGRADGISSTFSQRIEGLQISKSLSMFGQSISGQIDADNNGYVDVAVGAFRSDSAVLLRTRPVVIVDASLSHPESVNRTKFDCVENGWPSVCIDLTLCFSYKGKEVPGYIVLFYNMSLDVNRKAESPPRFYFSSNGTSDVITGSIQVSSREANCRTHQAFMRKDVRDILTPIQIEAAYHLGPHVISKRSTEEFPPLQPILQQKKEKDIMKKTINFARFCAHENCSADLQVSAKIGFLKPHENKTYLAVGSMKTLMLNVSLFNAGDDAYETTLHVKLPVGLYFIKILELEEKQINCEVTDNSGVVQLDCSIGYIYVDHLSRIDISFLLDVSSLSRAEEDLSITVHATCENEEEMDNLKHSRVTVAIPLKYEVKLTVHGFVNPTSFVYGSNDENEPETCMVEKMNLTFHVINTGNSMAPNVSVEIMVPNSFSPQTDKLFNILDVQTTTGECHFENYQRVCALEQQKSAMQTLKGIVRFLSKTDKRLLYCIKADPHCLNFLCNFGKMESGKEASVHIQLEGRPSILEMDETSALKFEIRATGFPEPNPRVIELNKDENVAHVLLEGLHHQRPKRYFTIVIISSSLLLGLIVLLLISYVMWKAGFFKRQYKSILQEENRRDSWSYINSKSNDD

Sequence of human alpha-4 integrin (CD49d), alpha-4-containing integrin heterodimers on endothelial cells (human) (P13612 34-1032, one chain of several): as above

In the case of “EILDV (listed as Homo sapiens) [fibronectin IIICS peptide]”, the “HCAEC adhesion compared with RGES control” value [1] is reported as “not statistically different than the RGES control”.

“EILEVPST (listed as Homo sapiens) [alpha-4 integrin-mediated negative control peptide]” was tested, and the “HCAEC adhesion compared with RGES control” value [1] was “essentially equivalent”, the “HUVEC adhesion compared with RGES control” value [2] was “essentially equivalent” and the “difference in HCAEC adhesion between IgG isotype control and alpha-4 integrin blocking antibody treated cells” value [3] was “not statistically significant”. For the same molecule, the “difference in HUVEC adhesion between IgG isotype control and alpha-4 integrin blocking antibody treated cells” value [4] was “not statistically significant”.

“FITC-conjugated mouse monoclonal IgG1 anti-human alpha-4 integrin (CD49d, clone BU49) (Chemicon International) (antibody)” was tested, and the percent of cell population positive [5] was 40%, the percent of cell population positive [6] was 10% and the percent of cell population positive [7] was 75%.

“RGDS (listed as Homo sapiens) [integrin-mediated cell adhesion peptide, positive control]” was tested, and the “difference in HCAEC adhesion between IgG isotype control and alpha-4 integrin blocking antibody treated cells” value [3] was “not statistically significant” and the “difference in HUVEC adhesion between IgG isotype control and alpha-4 integrin blocking antibody treated cells” value [4] was “not statistically significant”.

For “type I human collagen: human type I collagen (Sigma), extracellular matrix protein”, the “flowed platelet binding (51Cr), both states of activation” value [8] was “significantly increased binding”, the “non-activated platelet adhesion and thrombus formation (DiOC6 images)” value ([9]; non-activated platelets) was “quite vigorous, with clear evidence of multiple organized thrombi” and the “thrombin-activated platelet adhesion and thrombus formation (DiOC6 images)” value ([9]; platelets activated prior to flow) was “mimicked the non-activated counterparts”.

DELPQLVTLPHPNLHGPEILDVPST was tested, and the “HCAEC adhesion to immobilized peptide, fold relative to control peptide RGES (crystal violet, A562)” value [10] was 1.6 fold, the “HUVEC adhesion to immobilized peptide, fold relative to control peptide RGES (crystal violet, A562)” value [10] was roughly 4 fold and the “percent more of the total HCAEC population adhered, relative to RGES” value [10] was roughly 20%. The “percent more of the total HUVEC population adhered, relative to RGES” value [10] was roughly 25%.
